Measurements from publication PMC12566046, “Arylpiperazinyl-Benzocycloheptapyrrole-Carboxamides Endowed with Dual Anticancer and Antiviral Activities” (Molecules, 2025).

What was measured:
[1] = Cytotoxicity on uninfected Huh-7 cells (WST-8, crystal violet); settings: human, uninfected Huh-7 cells
[2] = system: IAV strain A/PR/8/34 (H1N1); settings: preliminary screening
[3] = system: SN12C (renal cancer cell line); assay: NCI-60 single-dose assay; assay type: cell-based, human; settings: Homo sapiens, read-out: growth inhibition (GI%) and cytotoxicity (negative values)
How it was run: (§1)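 NCI-60 one-dose format: each compound is tested at a single dose against human tumour lines for cytotoxic effect.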

[4] = system: NCI-H460 (non-small cell lung cancer cell line); assay: NCI-60 single-dose assay; assay type: cell-based, human
How it was run: as §1

[5] = system: MDA-MB-435 (melanoma cell line); assay: NCI-60 single-dose assay; assay type: cell-based, human; settings: human
How it was run: as §1

[6] = system: SK-MEL-28 (melanoma cell line); assay: NCI-60 single-dose assay; assay type: cell-based, human; settings: human
How it was run: as §1

[7] = system: CCRF-CEM (leukemia cell line); assay: NCI-60 single-dose assay; assay type: cell-based, human; settings: Homo sapiens, read-out: growth inhibition (GI%) and cytotoxicity (negative values)
How it was run: as §1

[8] = system: HT29 (colon cancer cell line); assay: NCI-60 single-dose assay; assay type: cell-based, human
How it was run: as §1

[9] = system: HCT-116 (colon cancer cell line); assay: NCI-60 single-dose assay; assay type: cell-based, human
How it was run: as §1

[10] = system: RXF 393 (renal cancer cell line); assay: NCI-60 single-dose assay; assay type: cell-based, human; settings: Homo sapiens, RXF 393, read-out: growth inhibition (GI%) and cytotoxicity (negative values)
How it was run: as §1

[11] = system: MDA-MB-468 (breast cancer cell line); assay: NCI-60 single-dose assay; assay type: cell-based, human; settings: human
How it was run: as §1

[12] = system: CAKI-1 (renal cancer cell line); assay: NCI-60 single-dose assay; assay type: cell-based, human
How it was run: as §1

[13] = system: UO-31 (renal cancer cell line); assay: NCI-60 single-dose assay; assay type: cell-based, human; settings: Homo sapiens, UO-31, read-out: growth inhibition (GI%) and cytotoxicity (negative values)
How it was run: as §1

[14] = system: MDA-MB-231/ATCC (breast cancer cell line); assay: NCI-60 single-dose assay; assay type: cell-based, human; settings: Homo sapiens, MDA-MB-231, read-out: growth inhibition (GI%) and cytotoxicity (negative values)
How it was run: as §1

[15] = system: SK-MEL-5 (melanoma cell line); assay: NCI-60 single-dose assay; assay type: cell-based, human; settings: human
How it was run: as §1

[16] = system: T-47D (breast cancer cell line); assay: NCI-60 single-dose assay; assay type: cell-based, human; settings: Homo sapiens, T47D, read-out: growth inhibition (GI%) and cytotoxicity (negative values)
How it was run: as §1

[17] = system: MALME-3M (melanoma cell line); assay: NCI-60 single-dose assay; assay type: cell-based, human; settings: human
How it was run: as §1

[18] = system: RPMI-8226 (leukemia cell line); assay: NCI-60 single-dose assay; assay type: cell-based, human
How it was run: as §1

[19] = system: COLO 205 (colon cancer cell line); assay: NCI-60 single-dose assay; assay type: cell-based, human; settings: human
How it was run: as §1

[20] = system: 786-0 (renal cancer cell line); assay: NCI-60 single-dose assay; assay type: cell-based, human
How it was run: as §1

[21] = system: NCI-H522 (non-small cell lung cancer cell line); assay: NCI-60 single-dose assay; assay type: cell-based, human; settings: Homo sapiens, NCI-H522, read-out: growth inhibition (GI%) and cytotoxicity (negative values)
How it was run: as §1

[22] = system: LOX IMVI (melanoma cell line); assay: NCI-60 single-dose assay; assay type: cell-based, human; settings: human
How it was run: as §1

[23] = system: BT-549 (breast cancer cell line); assay: NCI-60 single-dose assay; assay type: cell-based, human; settings: Homo sapiens, BT-549, read-out: growth inhibition (GI%) and cytotoxicity (negative values)
How it was run: as §1

[24] = system: EKVX (non-small cell lung cancer cell line); assay: NCI-60 single-dose assay; assay type: cell-based, human; settings: Homo sapiens, read-out: growth inhibition (GI%) and cytotoxicity (negative values)
How it was run: as §1

[25] = system: HCT-15 (colon cancer cell line); assay: NCI-60 single-dose assay; assay type: cell-based, human
How it was run: as §1

[26] = system: M14 (melanoma cell line); assay: NCI-60 single-dose assay; assay type: cell-based, human; settings: human
How it was run: as §1

[27] = system: HL-60(TB) (leukemia cell line); assay: NCI-60 single-dose assay; assay type: cell-based, human; settings: human
[28] = system: NCI-H226 (non-small cell lung cancer cell line); assay: NCI-60 single-dose assay; assay type: cell-based, human; settings: Homo sapiens, NCI-H226, read-out: growth inhibition (GI%) and cytotoxicity (negative values)
How it was run: as §1

[29] = system: SW-620 (colon cancer cell line); assay: NCI-60 single-dose assay; assay type: cell-based, human; settings: human
How it was run: as §1

[30] = system: MCF-7 (breast cancer cell line); assay: NCI-60 single-dose assay; assay type: cell-based, human; settings: Homo sapiens, MCF7, read-out: growth inhibition (GI%) and cytotoxicity (negative values), MCF-7, 10^−5 M
How it was run: as §1

[31] = system: SK-MEL-2 (melanoma cell line); assay: NCI-60 single-dose assay; assay type: cell-based, human
How it was run: as §1

[32] = system: NCI-H23 (non-small cell lung cancer cell line); assay: NCI-60 single-dose assay; assay type: cell-based, human; settings: Homo sapiens, NCI-H23, read-out: growth inhibition (GI%) and cytotoxicity (negative values)
How it was run: as §1

[33] = in vitro; settings: dog
[34] = in vitro; settings: African green monkey
[35] = system: K-562 (leukemia cell line); assay: NCI-60 single-dose assay; assay type: cell-based; settings: Homo sapiens, K562, read-out: growth inhibition (GI%) and cytotoxicity (negative values)
How it was run: as §1

[36] = system: SARS-CoV-2 VR PV10734 (strain Milano); assay: microbe, parasite or virus in culture; assay type: cell-based; settings: Severe acute respiratory syndrome coronavirus 2; preliminary screening (50, 5, 0.5 μM), Vero TMPRSS; read-out: SARS‐CoV‐2/Vero TMPRSS EC50

SMILES | CC50 at 48 h [1] | IAV/MDCK SI [2] | inhibition at 10 µM [3] | growth inhibition (GI%) and cytotoxicity (negative values) [5] | growth inhibition (GI%) and cytotoxicity (negative values) [6] | inhibition at 10 µM [7] | inhibition at 10 µM [10] | growth inhibition (GI%) and cytotoxicity (negative values) [11] | inhibition at 10 µM [13] | inhibition at 10 µM [14] | growth inhibition (GI%) and cytotoxicity (negative values) [15] | inhibition at 10 µM [16] | growth inhibition (GI%) and cytotoxicity (negative values) [17] | growth inhibition (GI%) and cytotoxicity (negative values) [19] | inhibition at 10 µM [21] | growth inhibition (GI%) and cytotoxicity (negative values) [22] | inhibition at 10 µM [23] | inhibition at 10 µM [24] | growth inhibition (GI%) and cytotoxicity (negative values) [26] | growth inhibition (GI%) and cytotoxicity (negative values) [27] | also measured
CCN1CCC[C@H]1CNC(=O)c1[nH]c2c(c1Cl)CCCc1ccccc1-2 [Compound 1, (S)-3-Chloro-N-(1-ethyl-2-pyrrolidinylmethyl)-5,6-dihydro-4H-benzo[6,7]cyclohepta[1,2-b]pyrrol-2-carboxamide] | 3.88 µM | 0.10 | < 60% | −78.15% | −85.77% | 75.5% | 79.7% | −3.75% | 83% | 89% | −88.03% | 66.2% | −90.67% | −52.22% | 73.5% | −25.00% | 62.9% | 68.8% | −68.50% | −38.55% | growth inhibition (GI%) and cytotoxicity (negative values) ([4]; human): −54.58%; growth inhibition (GI%) and cytotoxicity (negative values) ([8]; human): −32.25%; growth inhibition (GI%) and cytotoxicity (negative values) ([9]; human): −25.27%; growth inhibition (GI%) and cytotoxicity (negative values) ([12]; human): −27.03%; inhibition at 10 µM ([18]; Homo sapiens, RPMI-8226, read-out: growth inhibition (GI%) and cytotoxicity (negative values)): 98.6%; growth inhibition (GI%) and cytotoxicity (negative values) ([20]; human): −22.61%; growth inhibition (GI%) and cytotoxicity (negative values) ([25]; human): −52.66%; inhibition at 10 µM [28]: < 60%; growth inhibition (GI%) and cytotoxicity (negative values) [29]: −30.78%; inhibition at 10 µM [30]: 87.2%; inhibition at 10 µM ([31]; Homo sapiens, SK-MEL-2, read-out: growth inhibition (GI%) and cytotoxicity (negative values)): 85.8%; inhibition at 10 µM [32]: < 60%; CC50 [33]: 1.75 µM; CC50 at 24 h [34]: 14.7 µM; inhibition at 10 µM [35]: 94%; EC50 [36]: 9.61 µM
O=C(NCCCN1CCN(Cc2ccccc2)CC1)c1c(Cl)[nH]c2c1CCCc1ccccc1-2 [Compound 20, N-(3-(4-Benzylpiperazin-1-yl)propyl)-2-chloro-1,4,5,6-tetrahydrobenzo[6,7]cyclohepta[1,2-b]pyrrole-3-carboxamide] | 6.23 µM | 0.35 | < 60% | −21.33% | −88.58% | < 60% | 78.2% | −29.55% | 65.9% | 62.6% | −89.68% | 78.5% | −84.03% | −59.92% | 92.2% | −69.19% | 68.4% | 77.2% | −69.37% | −23.10% | inhibition at 10 µM ([4]; Homo sapiens, NCI-H460, read-out: growth inhibition (GI%) and cytotoxicity (negative values)): 83.1%; inhibition at 10 µM ([8]; Homo sapiens, HT-29, read-out: growth inhibition (GI%) and cytotoxicity (negative values)): 94.7%; inhibition at 10 µM ([9]; Homo sapiens, HCT-116, read-out: growth inhibition (GI%) and cytotoxicity (negative values)): 95.5%; inhibition at 10 µM ([12]; Homo sapiens, CAKI-1, read-out: growth inhibition (GI%) and cytotoxicity (negative values)): 84.7%; growth inhibition (GI%) and cytotoxicity (negative values) ([18]; human): −1.74%; inhibition at 10 µM ([20]; Homo sapiens, 786-0, read-out: growth inhibition (GI%) and cytotoxicity (negative values)): 87%; inhibition at 10 µM ([25]; Homo sapiens, HCT-15, read-out: growth inhibition (GI%) and cytotoxicity (negative values)): 99%; inhibition at 10 µM [28]: < 60%; growth inhibition (GI%) and cytotoxicity (negative values) [29]: −40.23%; inhibition at 10 µM [30]: 95.5%; growth inhibition (GI%) and cytotoxicity (negative values) ([31]; human): −52.93%; inhibition at 10 µM [32]: 60.2%; CC50 [33]: 6.12 µM; CC50 at 24 h [34]: 15.4 µM; inhibition at 10 µM [35]: < 60%; EC50 [36]: 17.7 µM
